# Experimental data taken from paper PMC8398766, “Do Small Molecules Activate the TrkB Receptor in the Same Manner as BDNF? Limitations of Published TrkB Low Molecular Agonists and Screening for Novel TrkB Orthosteric Agonists” (Pharmaceuticals, 2021).
# Values joined by “and” are separate entries in the source; they are usually repeats but may differ in a detail not shown here. Equal entries are not always repeated.
# B1: BDNF: Brain-derived neurotrophic factor, endogenous TrkB receptor agonist (protein, UniProt P23560 19-247, looked up)
# Neurotrophic factor BDNF …: APMKEANIRGQGGLAYPGVRTHGTLESVNGPKAGSRGLTSLADTFEHVIEELLDEDQKVRPNEENNKDADLYTSRVMLSSQVPLEPPLLFLLEEYKNYLDAANMSMRVRRHSDPARRGELSVCDSISEWVTAADKKTAVDMSGGTVTVLEKVPVSKGQLKQYFYETKCNPMGYTKEGCRGIDKRHWNSQCRTTQSYVRALTMDSKKRIGWRFIRIDTSCVCTLTIKRGR
# Legend:
# [1] = target: T1, 5-HT1B (Rattus norvegicus, UniProt P28564); assay: BioPrint Profile Panel; assay type: binding; conditions: Antagonist, Receptor, read-out: % of specific inhibition
# T1 construct: purchased Eurofins Discovery (Cerep) BioPrint Profile Panel
# Excerpt: (§1) The BioPrint® Profile Panel service offered by Eurofins Discovery (Poitiers, France) was chosen to perform selectivity analysis.
# [2] = target: T2, 5-HT3 (Homo sapiens, UniProt P46098); assay: BioPrint Profile Panel; assay type: binding; conditions: Antagonist, Ion Channel, read-out: % of specific inhibition
# T2 construct: purchased Eurofins Discovery (Cerep) BioPrint Profile Panel
# Excerpt: as §1
# [3] = target: T3, 5-HT7 (Homo sapiens, UniProt P34969); assay: BioPrint Profile Panel; assay type: binding; conditions: Agonist, Receptor, read-out: % of specific inhibition
# T3 construct: purchased Eurofins Discovery (Cerep) BioPrint Profile Panel
# Excerpt: as §1
# [4] = target: T4, A2A (Homo sapiens, UniProt P29274); assay: BioPrint Profile Panel; assay type: binding; conditions: Agonist, Receptor
# T4 construct: purchased Eurofins Discovery (Cerep) BioPrint Profile Panel
# Excerpt: as §1
# [5] = target: T5, APJ (apelin) (Homo sapiens, UniProt P35414); assay: BioPrint Profile Panel; assay type: binding; conditions: Agonist, Receptor, read-out: % of specific inhibition
# T5 construct: purchased Eurofins Discovery (Cerep) BioPrint Profile Panel
# Excerpt: as §1
# [6] = target: T6, BB3 (Homo sapiens, UniProt P32247); assay: BioPrint Profile Panel; assay type: binding; conditions: Agonist, Receptor, read-out: % of specific inhibition
# T6 construct: purchased Eurofins Discovery (Cerep) BioPrint Profile Panel
# Excerpt: as §1
# [7] = test system: BZD; assay: BioPrint Profile Panel; assay type: binding; conditions: 10 μM, Agonist, Ion Channel
# Excerpt: as §1
# [8] = target: T7, CB2 (Homo sapiens, UniProt P34972); assay: BioPrint Profile Panel; assay type: binding; conditions: Agonist, Receptor, read-out: % of specific inhibition
# T7 construct: purchased Eurofins Discovery (Cerep) BioPrint Profile Panel
# Excerpt: as §1
# [9] = target: T8, CCK2 (CCKB) (Homo sapiens, UniProt P32239); assay: BioPrint Profile Panel; assay type: binding; conditions: Agonist, Receptor, read-out: % of specific inhibition
# T8 construct: purchased Eurofins Discovery (Cerep) BioPrint Profile Panel
# Excerpt: as §1
# [10] = test system: Ca2+ channel (verapamil site); assay: BioPrint Profile Panel; assay type: binding; conditions: 10 μM; Antagonist (verapamil site); Ion Channel
# Excerpt: as §1
# [11] = test system: Cl- channel; assay: BioPrint Profile Panel; assay type: binding; conditions: 10 μM; Antagonist; Ion Channel
# Excerpt: as §1
# [12] = target: T9, D1 (Homo sapiens, UniProt P21728); assay: BioPrint Profile Panel; assay type: binding; conditions: Antagonist, Receptor, read-out: % of specific inhibition
# T9 construct: purchased Eurofins Discovery (Cerep) BioPrint Profile Panel
# Excerpt: as §1
# [13] = target: T10, D2S (Homo sapiens, UniProt P14416); assay: BioPrint Profile Panel; assay type: binding; conditions: Agonist, Receptor, read-out: % of specific inhibition
# T10 construct: purchased Eurofins Discovery (Cerep) BioPrint Profile Panel
# Excerpt: as §1
# [14] = target: T11, ETA (Homo sapiens, UniProt P25101); assay: BioPrint Profile Panel; assay type: binding; conditions: Agonist, Receptor, read-out: % of specific inhibition
# T11 construct: purchased Eurofins Discovery (Cerep) BioPrint Profile Panel
# Excerpt: as §1
# [15] = target: T12, ETB (Homo sapiens, UniProt P24530); assay: BioPrint Profile Panel; assay type: binding; conditions: Agonist, Receptor, read-out: % of specific inhibition
# T12 construct: purchased Eurofins Discovery (Cerep) BioPrint Profile Panel
# Excerpt: as §1
# [16] = target: T13, Estrogen Erα (Homo sapiens, UniProt P03372); assay: BioPrint Profile Panel; assay type: binding; conditions: Agonist, Receptor, read-out: % of specific inhibition
# T13 construct: purchased Eurofins Discovery (Cerep) BioPrint Profile Panel
# Excerpt: as §1
# [17] = test system: GABA transporter; assay: BioPrint Profile Panel; assay type: binding; conditions: 10 μM, Antagonist
# Excerpt: as §1
# [18] = target: T14, GABAB(1b) (Homo sapiens, UniProt Q9UBS5); assay: BioPrint Profile Panel; assay type: binding; conditions: Antagonist, Receptor, read-out: % of specific inhibition
# T14 construct: purchased Eurofins Discovery (Cerep) BioPrint Profile Panel
# Excerpt: as §1
# [19] = target: T15, GR (Homo sapiens, UniProt P04150); assay: BioPrint Profile Panel; assay type: binding; conditions: Agonist, Receptor, read-out: % of specific inhibition
# T15 construct: purchased Eurofins Discovery (Cerep) BioPrint Profile Panel
# Excerpt: as §1
# [20] = target: T16, H1 (Homo sapiens, UniProt P35367); assay: BioPrint Profile Panel; assay type: binding; conditions: Antagonist, Receptor, read-out: % of specific inhibition
# T16 construct: purchased Eurofins Discovery (Cerep) BioPrint Profile Panel
# Excerpt: as §1
# [21] = target: T17, H3 (Homo sapiens, UniProt Q9Y5N1); assay: BioPrint Profile Panel; assay type: binding; conditions: Agonist, Receptor, read-out: % of specific inhibition
# T17 construct: purchased Eurofins Discovery (Cerep) BioPrint Profile Panel
# Excerpt: as §1
# [22] = target: T18, IP (PGI2) (Homo sapiens, UniProt P43119); assay: BioPrint Profile Panel; assay type: binding; conditions: Agonist, Receptor, read-out: % of specific inhibition
# T18 construct: purchased Eurofins Discovery (Cerep) BioPrint Profile Panel
# Excerpt: as §1
# [23] = target: T19, LXRβ (Homo sapiens, UniProt P55055); assay: BioPrint Profile Panel; assay type: binding; conditions: Agonist, Receptor, read-out: % of specific inhibition
# T19 construct: purchased Eurofins Discovery (Cerep) BioPrint Profile Panel
# Excerpt: as §1
# [24] = target: T20, MC3 (Homo sapiens, UniProt P41968); assay: BioPrint Profile Panel; assay type: binding; conditions: Agonist, Receptor, read-out: % of specific inhibition
# T20 construct: purchased Eurofins Discovery (Cerep) BioPrint Profile Panel
# Excerpt: as §1
# [25] = target: T21, MT1 (ML1A) (Homo sapiens, UniProt P48039); assay: BioPrint Profile Panel; assay type: binding; conditions: Agonist, Receptor, read-out: % of specific inhibition
# T21 construct: purchased Eurofins Discovery (Cerep) BioPrint Profile Panel
# Excerpt: as §1
# [26] = test system: MT3 (ML2); assay: BioPrint Profile Panel; assay type: binding; conditions: 10 μM; Agonist; Receptor
# Excerpt: as §1
# [27] = test system: N muscle-type; assay: BioPrint Profile Panel; assay type: binding; conditions: 10 μM; Antagonist; Receptor
# Excerpt: as §1
# [28] = target: T22, NK2 (Homo sapiens, UniProt P21452); assay: BioPrint Profile Panel; assay type: binding; conditions: Agonist, Receptor, read-out: % of specific inhibition
# T22 construct: purchased Eurofins Discovery (Cerep) BioPrint Profile Panel
# Excerpt: as §1
# [29] = target: T23, RARα (Homo sapiens, UniProt P10276); assay: BioPrint Profile Panel; assay type: binding; conditions: Agonist, Receptor, read-out: % of specific inhibition
# T23 construct: purchased Eurofins Discovery (Cerep) BioPrint Profile Panel
# Excerpt: as §1
# [30] = test system: TNF-α; assay: BioPrint Profile Panel; assay type: binding; conditions: 10 μM; Agonist; Receptor
# Excerpt: as §1
# [31] = target: T24, V2 (Homo sapiens, UniProt P30518); assay: BioPrint Profile Panel; assay type: binding; conditions: Agonist, Receptor, read-out: % of specific inhibition
# T24 construct: purchased Eurofins Discovery (Cerep) BioPrint Profile Panel
# Excerpt: as §1
# [32] = test system: glycine; assay: BioPrint Profile Panel; assay type: binding; conditions: 10 μM; Antagonist; Ion Channel
# Excerpt: as §1
# [33] = target: T25, sst1 (Homo sapiens, UniProt P30872); assay: BioPrint Profile Panel; assay type: binding; conditions: Agonist, Receptor, read-out: % of specific inhibition
# T25 construct: purchased Eurofins Discovery (Cerep) BioPrint Profile Panel
# Excerpt: as §1
# [34] = target: T26, sst4 (Homo sapiens, UniProt P31391); assay: BioPrint Profile Panel; assay type: binding; conditions: Agonist, Receptor, read-out: % of specific inhibition
# T26 construct: purchased Eurofins Discovery (Cerep) BioPrint Profile Panel
# Excerpt: as §1
# [35] = target: T27, µ (MOP) (Homo sapiens, UniProt P35372); assay: BioPrint Profile Panel; assay type: binding; conditions: Agonist, Receptor, read-out: % of specific inhibition
# T27 construct: purchased Eurofins Discovery (Cerep) BioPrint Profile Panel
# Excerpt: as §1
# [36] = target: T28, α1A (Homo sapiens, UniProt P35348); assay: BioPrint Profile Panel; assay type: binding; conditions: Antagonist, Receptor, read-out: % of specific inhibition
# T28 construct: purchased Eurofins Discovery (Cerep) BioPrint Profile Panel
# Excerpt: as §1
# [37] = target: T29, α2B (Homo sapiens, UniProt P18089); assay: BioPrint Profile Panel; assay type: binding; conditions: Antagonist, Receptor, read-out: % of specific inhibition
# T29 construct: purchased Eurofins Discovery (Cerep) BioPrint Profile Panel
# Excerpt: as §1
# [38] = target: T30, β1 (Homo sapiens, UniProt P08588); assay: BioPrint Profile Panel; assay type: binding; conditions: Agonist, Receptor, read-out: % of specific inhibition
# T30 construct: purchased Eurofins Discovery (Cerep) BioPrint Profile Panel
# Excerpt: as §1
# [39] = target: T31, exTrkB (Homo sapiens, UniProt Q16620); assay: Ligand-induced exTrkB dimerization assay (native electrophoresis); assay type: biochemical; conditions: exTrkB:ligand 1:1, non-reducing conditions
# T31 construct: human TrkB receptor (exTrkB), residues 1−430, was cloned into the pCMV2 expression vector; made in house; host or cells: ExpiCHO-S cells
# Method: The native exTrkB, BDNF, and tested compounds were separately diluted with PBS (pH 7.4) to a final concentration of 2.5 μM. Then, exTrkB, BDNF, or the tested compound were mixed (1:1 v/v) and incubated at 25 °C for 10 min, and 2X Sample Buffer (0.6 M Tris, 20% glycerol, 0.02% Bromophenol Blue, pH 6.8) was added to the samples. Afterwards, the samples were loaded into Stain-Free gels (10% Mini-PROTEAN® TGX Stain-Free™ Protein Gels; Bio-Rad, Hercules, CA, USA) and separated in non-reducing conditions using SDS-free electrophoresis buffer (192 mM glycine, 25 mM Tris; pH 8.3). Visualization of the protein bands was performed using a ChemiDoc MP Imaging System (Bio-Rad).
# T4 sequence (P29274 whole entry): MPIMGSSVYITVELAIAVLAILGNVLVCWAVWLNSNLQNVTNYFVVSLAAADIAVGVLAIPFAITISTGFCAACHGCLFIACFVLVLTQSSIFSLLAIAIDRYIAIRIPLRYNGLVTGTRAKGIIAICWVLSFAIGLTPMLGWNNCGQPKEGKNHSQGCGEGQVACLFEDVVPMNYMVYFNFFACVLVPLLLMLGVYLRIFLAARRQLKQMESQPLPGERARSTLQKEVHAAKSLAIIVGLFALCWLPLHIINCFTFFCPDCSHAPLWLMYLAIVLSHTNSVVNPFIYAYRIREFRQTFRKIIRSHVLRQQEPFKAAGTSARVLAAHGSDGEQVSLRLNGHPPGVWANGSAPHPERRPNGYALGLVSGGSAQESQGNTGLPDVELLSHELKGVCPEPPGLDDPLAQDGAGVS
# T27 sequence (P35372 whole entry): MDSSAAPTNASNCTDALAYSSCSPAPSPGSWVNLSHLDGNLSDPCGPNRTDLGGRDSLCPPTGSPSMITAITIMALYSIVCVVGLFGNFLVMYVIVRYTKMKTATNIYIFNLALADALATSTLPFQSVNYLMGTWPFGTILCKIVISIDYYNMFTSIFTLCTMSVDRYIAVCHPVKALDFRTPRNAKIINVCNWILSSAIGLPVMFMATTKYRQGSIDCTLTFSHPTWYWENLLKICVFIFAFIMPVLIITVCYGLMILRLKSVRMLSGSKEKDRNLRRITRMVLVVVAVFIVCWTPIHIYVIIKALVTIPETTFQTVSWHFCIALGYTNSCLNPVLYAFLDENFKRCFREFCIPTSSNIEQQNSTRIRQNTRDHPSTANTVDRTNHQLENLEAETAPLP
# T5 sequence (P35414 whole entry): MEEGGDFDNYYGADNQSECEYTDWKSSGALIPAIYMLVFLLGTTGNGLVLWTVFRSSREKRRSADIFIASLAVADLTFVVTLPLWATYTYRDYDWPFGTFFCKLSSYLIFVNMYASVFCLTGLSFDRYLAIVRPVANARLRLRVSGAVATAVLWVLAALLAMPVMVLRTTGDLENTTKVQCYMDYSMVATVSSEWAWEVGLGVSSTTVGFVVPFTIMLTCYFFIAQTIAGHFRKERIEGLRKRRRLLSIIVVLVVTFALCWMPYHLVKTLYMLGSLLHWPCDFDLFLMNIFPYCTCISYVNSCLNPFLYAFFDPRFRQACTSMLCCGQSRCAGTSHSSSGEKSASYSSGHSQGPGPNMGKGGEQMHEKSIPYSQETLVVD
# T24 sequence (P30518 whole entry): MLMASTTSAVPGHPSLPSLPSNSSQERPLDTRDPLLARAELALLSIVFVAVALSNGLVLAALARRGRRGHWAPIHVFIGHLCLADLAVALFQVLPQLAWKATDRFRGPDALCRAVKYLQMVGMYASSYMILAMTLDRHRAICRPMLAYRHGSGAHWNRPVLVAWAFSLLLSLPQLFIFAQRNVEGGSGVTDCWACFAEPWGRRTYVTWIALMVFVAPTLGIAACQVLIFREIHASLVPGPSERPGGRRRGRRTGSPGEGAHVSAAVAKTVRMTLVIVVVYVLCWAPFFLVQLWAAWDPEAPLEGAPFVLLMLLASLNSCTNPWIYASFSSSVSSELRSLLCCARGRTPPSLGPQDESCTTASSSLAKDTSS
# T25 sequence (P30872 whole entry): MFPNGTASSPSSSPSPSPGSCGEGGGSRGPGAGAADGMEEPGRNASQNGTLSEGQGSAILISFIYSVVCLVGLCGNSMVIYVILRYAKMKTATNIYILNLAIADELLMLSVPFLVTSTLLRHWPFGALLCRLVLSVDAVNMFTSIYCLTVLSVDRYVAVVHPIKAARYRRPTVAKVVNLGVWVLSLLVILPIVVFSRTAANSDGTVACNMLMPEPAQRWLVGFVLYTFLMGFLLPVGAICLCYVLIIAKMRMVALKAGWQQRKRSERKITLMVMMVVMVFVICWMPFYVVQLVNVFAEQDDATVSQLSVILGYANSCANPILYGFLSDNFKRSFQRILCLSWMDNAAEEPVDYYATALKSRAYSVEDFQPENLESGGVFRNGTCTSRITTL
# T30 sequence (P08588 whole entry): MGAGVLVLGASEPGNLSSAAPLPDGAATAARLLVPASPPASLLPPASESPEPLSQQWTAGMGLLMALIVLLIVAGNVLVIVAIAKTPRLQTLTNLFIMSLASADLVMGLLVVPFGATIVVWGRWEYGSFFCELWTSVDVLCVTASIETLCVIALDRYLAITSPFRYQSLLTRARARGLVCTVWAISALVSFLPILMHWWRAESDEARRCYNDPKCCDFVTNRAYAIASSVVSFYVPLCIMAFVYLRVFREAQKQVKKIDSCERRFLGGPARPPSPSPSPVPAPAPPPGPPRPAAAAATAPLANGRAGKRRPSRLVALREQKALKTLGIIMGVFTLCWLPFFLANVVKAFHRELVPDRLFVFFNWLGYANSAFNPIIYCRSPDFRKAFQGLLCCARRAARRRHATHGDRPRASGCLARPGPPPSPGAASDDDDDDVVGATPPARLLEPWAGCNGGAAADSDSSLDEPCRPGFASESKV
# T18 sequence (P43119 whole entry): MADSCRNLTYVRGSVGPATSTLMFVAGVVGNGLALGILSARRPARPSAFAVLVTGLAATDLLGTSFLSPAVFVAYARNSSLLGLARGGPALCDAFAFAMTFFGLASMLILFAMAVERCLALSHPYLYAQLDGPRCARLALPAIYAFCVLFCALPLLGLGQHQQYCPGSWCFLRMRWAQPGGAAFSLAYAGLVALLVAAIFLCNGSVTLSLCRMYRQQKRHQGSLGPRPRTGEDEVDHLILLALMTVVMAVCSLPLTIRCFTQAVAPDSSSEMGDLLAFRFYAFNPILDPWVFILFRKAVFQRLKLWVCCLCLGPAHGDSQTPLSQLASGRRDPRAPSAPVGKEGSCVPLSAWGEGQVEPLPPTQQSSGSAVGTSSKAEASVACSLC
# T20 sequence (P41968 whole entry): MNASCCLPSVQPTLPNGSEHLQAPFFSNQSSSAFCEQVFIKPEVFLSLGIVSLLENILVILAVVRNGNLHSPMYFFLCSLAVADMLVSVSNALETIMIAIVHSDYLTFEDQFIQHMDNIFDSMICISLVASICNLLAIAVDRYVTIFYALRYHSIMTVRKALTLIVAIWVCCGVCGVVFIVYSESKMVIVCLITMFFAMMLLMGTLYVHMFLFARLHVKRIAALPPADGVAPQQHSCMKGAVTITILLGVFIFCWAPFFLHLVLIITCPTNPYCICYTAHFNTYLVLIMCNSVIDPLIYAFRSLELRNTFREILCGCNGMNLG
# T29 sequence (P18089 whole entry): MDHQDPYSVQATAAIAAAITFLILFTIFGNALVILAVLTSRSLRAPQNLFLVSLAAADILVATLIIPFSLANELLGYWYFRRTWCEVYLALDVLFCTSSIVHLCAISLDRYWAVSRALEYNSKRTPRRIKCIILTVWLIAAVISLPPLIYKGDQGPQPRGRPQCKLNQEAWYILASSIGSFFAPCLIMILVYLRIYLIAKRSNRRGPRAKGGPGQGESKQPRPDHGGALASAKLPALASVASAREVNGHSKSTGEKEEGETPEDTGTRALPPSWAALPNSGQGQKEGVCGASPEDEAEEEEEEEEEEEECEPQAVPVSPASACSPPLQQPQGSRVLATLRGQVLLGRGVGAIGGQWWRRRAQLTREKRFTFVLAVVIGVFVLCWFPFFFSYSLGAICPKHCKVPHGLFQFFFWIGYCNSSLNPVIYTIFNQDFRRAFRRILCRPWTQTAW
# T15 sequence (P04150 whole entry): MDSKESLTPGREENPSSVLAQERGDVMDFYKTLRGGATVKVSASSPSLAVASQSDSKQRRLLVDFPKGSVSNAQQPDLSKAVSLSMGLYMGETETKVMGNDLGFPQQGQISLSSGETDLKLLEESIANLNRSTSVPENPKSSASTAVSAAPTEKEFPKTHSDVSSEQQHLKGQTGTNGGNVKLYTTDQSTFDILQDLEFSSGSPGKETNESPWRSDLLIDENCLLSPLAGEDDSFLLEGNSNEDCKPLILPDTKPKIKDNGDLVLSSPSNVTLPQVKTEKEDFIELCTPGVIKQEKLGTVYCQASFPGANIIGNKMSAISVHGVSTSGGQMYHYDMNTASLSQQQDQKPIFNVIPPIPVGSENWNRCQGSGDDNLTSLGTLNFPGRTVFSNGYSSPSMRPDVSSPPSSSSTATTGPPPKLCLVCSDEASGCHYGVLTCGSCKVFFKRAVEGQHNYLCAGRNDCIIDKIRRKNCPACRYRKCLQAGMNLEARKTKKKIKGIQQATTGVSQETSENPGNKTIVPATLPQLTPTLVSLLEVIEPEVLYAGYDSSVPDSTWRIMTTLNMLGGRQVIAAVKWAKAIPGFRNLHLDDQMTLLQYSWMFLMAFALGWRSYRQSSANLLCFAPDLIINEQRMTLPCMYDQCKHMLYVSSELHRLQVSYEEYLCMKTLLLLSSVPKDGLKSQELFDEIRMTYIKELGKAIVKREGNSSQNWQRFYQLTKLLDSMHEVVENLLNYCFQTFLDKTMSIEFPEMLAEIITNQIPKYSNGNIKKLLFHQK
# T9 sequence (P21728 whole entry): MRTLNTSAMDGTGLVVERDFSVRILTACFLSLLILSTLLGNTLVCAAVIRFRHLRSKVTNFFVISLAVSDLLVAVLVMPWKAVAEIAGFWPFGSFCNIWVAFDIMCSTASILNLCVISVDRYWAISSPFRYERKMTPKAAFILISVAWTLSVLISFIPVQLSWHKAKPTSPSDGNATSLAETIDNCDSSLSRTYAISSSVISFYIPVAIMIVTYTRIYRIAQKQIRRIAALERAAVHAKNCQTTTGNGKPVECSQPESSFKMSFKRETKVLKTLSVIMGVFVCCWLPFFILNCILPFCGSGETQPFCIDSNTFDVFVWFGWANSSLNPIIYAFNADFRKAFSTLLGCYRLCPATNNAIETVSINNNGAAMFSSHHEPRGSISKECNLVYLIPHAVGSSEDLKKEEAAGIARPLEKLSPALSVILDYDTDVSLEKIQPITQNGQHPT
molecule,measurement,setting,value
"O=c1cc(-c2ccccc2)oc2c(O)c(O)ccc12 [7,8-DHF, 7,8-dihydroxyflavone]",inhibition at 10 µM,[1],3%
same,inhibition at 10 µM,[2],-2%
same,inhibition at 10 µM,[3],4%
same,% Inhibition of Control Specific Binding,[4]; 10 μM,74.9%
same,inhibition at 10 µM,[4]; read-out: % Inhibition of Control Specific Binding,75%
same,inhibition at 10 µM,[5],4%
same,inhibition at 10 µM,[6],11%
same,% Inhibition of Control Specific Binding,[7],71% and 70.6%
same,inhibition at 10 µM,[8],-3%
same,inhibition at 10 µM,[9],15%
same,% of specific inhibition,[10],2%
same,% of specific inhibition,[11],-7%
same,inhibition at 10 µM,[12],-4%
same,inhibition at 10 µM,[13],-15%
same,inhibition at 10 µM,[14],-10%
same,inhibition at 10 µM,[15],-26%
same,inhibition at 10 µM,[16],7%
same,% of specific inhibition,[17],-2%
same,inhibition at 10 µM,[18],-5%
same,inhibition at 10 µM,[19],-1%
same,inhibition at 10 µM,[20],-5%
same,inhibition at 10 µM,[21],-6%
same,inhibition at 10 µM,[22],17%
same,inhibition at 10 µM,[23],49%
same,inhibition at 10 µM,[24],-5%
same,inhibition at 10 µM,[25],20%
same,% Inhibition of Control Specific Binding,[26],86%
same,% of specific inhibition,[27],-20%
same,inhibition at 10 µM,[28],-2%
same,inhibition at 10 µM,[29],-16%
same,% of specific inhibition,[30],2%
same,inhibition at 10 µM,[31],-2%
same,% of specific inhibition,[32],-1%
same,inhibition at 10 µM,[33],2%
same,inhibition at 10 µM,[34],-23%
same,inhibition at 10 µM,[35],-2%
same,inhibition at 10 µM,[36],2%
same,inhibition at 10 µM,[37],-2%
same,inhibition at 10 µM,[38],-5%
B1,TrkB Dimerization,[39],YES
